In patent US20080206253A1, “Method For Preventing or Treating Pain in a Mammal” (priority 2005, published 2008):
Entries after “also recorded” stand apart in the source; their conditions may differ. Marks after values point to notes of the source that are not given here.

Tested on: p38β
Test: Western blot of spinal p38β protein expression after IT antisense
Type: in vivo, rat
Conditions: for p38β protein expression, % Expression Compared to Missense: spinal cord at day six, MS=100%, mean ±SEM n=6; for spinal p38β protein expression compared to missense (MS)-treated animals (in words): five days of IT bolus injections, p38β AS 10-20 μg (10 and 20 μg: P<0.05), p38α AS 10-30 μg
Description: It has previously been shown that inhibition of spinal p38 MAP kinase prevents both inflammation-evoked hyperalgesia and nerve injury-induced allodynia. Ji et al., Neuron 36: 57-68, 2002; Schafers et al., J Neurosci 23: 2517-2521, 2003; Svensson et al., Neuroreport 14: 1153-1157, 2003a.; Svensson et al., J Neurochem 86: 1534-1544, 2003b. It still remains to be determined whether only one or both of the p38 isoforms, that are present in the spinal cord, are involved in modulation of spinal nociceptive processing. Since there is no specific p38 isoform inhibitors available, rats were treated intrathecally with isoform specific antisense oligonucleotides (AS) in order to knock down p38α and p38β respectively. […] There were no differences between the AS-, MS- or vehicle-treated groups in terms of weight gain or motor function. The specificity of the effects of these two antisense oligonucleotides was also examined. Western blot membranes were stripped and re-incubated the with the other p38 isoform antibody. […] In Table 1, antisense was given IT once daily for 5 days and protein expression assayed in spinal chord at day six compared to protein level detected in missense treated animals (MS=100%). Each group represents mean ±SEM, n=6 per group. (*) represents P<0.05 as compared to the missense group.
Antisense oligonucleotides. Three oligonucleotides (a kind gift from ISIS Pharmaceuticals Inc.) with lengths of 20 nucleotides were employed in the study: ISIS 101757 (p38α AS) […], beginning at position 1081 in the rat p38α mRNA; ISIS 107211 (p38βAS) […], beginning at position 439 in the rat p38β mRNA; and ISIS141923 (an universe MS control) […]. These oligonucleotides were synthesized as 2′-methoxyethyl (MOE) phosphorothioate chimeric oligonucleotides in which the first and last five bases contained MOE modifications with a uniform phosphorothioate backbone. Butler et al., Diabetes 51: 1028-1034, 2002. The oligonucleotides were dissolved in artificial cerebrospinal fluid (ACSF) immediately prior to intrathecal administration. The ACSF contained (mM) 151.1 Na+, 2.6 K+, 0.9 Mg2+, 1.3 Ca 2+, 122.7 Cl−, 21.0 HCO3, 2.5 HPO4 and was bubbled with 95% O2/5% CO2 before use to adjust the final pH to 7.2. AS and MS (10-30 μg) was administrated in 10 μl ACSF followed by 10 μl saline daily for five days and behavioral experiments and spinal tissue collection performed on day six.
Western blot. Prior to sacrifice, rats were deeply anesthetized and after decapitation the spinal cords were ejected from the vertebral column by a saline-filled syringe. The lumbar part of the spinal cord was immediately homogenized in extraction buffer (50 mM Tris buffer, pH 8.0, containing 0.5% Triton X-100, 150 mM NaCl, 1 mM EDTA, phosphatase and protease inhibitors) by sonication. The tissue extracts were subjected to denaturing NuPAGE 4-12% Bis-Tris gel electrophoresis and then transferred to nitrocellulose membranes (Micronic Separation Inc. Westborough, Mass.). After blocking nonspecific binding sites with 5% low-fat milk in PBS containing 0.1% Tween 20 (PBS-T) for 1 hour in room temperature, the membranes were incubated with antibodies overnight at 4° C. After washing, the antibody-protein complexes were probed with appropriate secondary antibodies labeled with horseradish peroxidase for 1 hr at room temperature and detected with chemiluminescent reagents (SuperSignal, Pierce, Rockford, Ill.). […]

Question: How did the “p38β protein expression, % Expression Compared to Missense” value (IT antisense 30 μg once daily for 5 days) turn out when “p38α AS: 20-nucleotide 2′-MOE phosphorothioate chimeric antisense AGGTGCTCAGGACTCCATTT, beginning at position 1081 in the rat p38α mRNA (all phosphorothioate, sugars by position and methylation of C not given here; 2'-MOE chimeric (gapmer) antisense)” was run?
Answer: The value was 111 ± 15%.

Question: And the “spinal p38β protein expression compared to missense (MS)-treated animals (in words)” value?
Answer: Its value is “neither p38α AS nor p38β AS produced a reduction of the protein expression of the other isoform”.

Question: What does the source list for “p38β AS: 20-nucleotide 2′-MOE phosphorothioate chimeric antisense GTATGTCCTCCTCGCGTGGA, beginning at position 439 in the rat p38β mRNA (all phosphorothioate, sugars by position and methylation of C not given here; 2'-MOE chimeric (gapmer) antisense)”?
Answer: p38β protein expression, % Expression Compared to Missense (IT antisense 10 μg once daily for 5 days): 45 ± 9* %; p38β protein expression, % Expression Compared to Missense (IT antisense 20 μg once daily for 5 days): 39 ± 12* %; spinal p38β protein expression compared to missense (MS)-treated animals (in words): significant down-regulation; also recorded: knocked down
